Assay results reported in patent publication US20110001042A1, “ASSESSING TREATMENT COMPLIANCE” (priority 2007, published 2011).
“And” between values parts separate entries of the source, which are not always exact repeats. Identical values can stand only once.

Columns and labels:
[1] = fluticasone-17β carboxylic acid in urine of patients before, during and after FP therapy by LC-MS/MS; type: in vivo, human
Protocol: Fluticasone-17β carboxylic acid was extracted from urine using an acetonitrile precipitation followed by methylene chloride liquid extraction of the supernatant. Sixty μL of the reconstituted sample extract was analyzed by LC-MS/MS (ABI 4000). The linearity, precision, recovery and limit of quantitation (LOQ) were determined. Measurement of fluticasone-17β carboxylic acid in urine collected daily from patients before (days 1-2), during (days 3-6; total dose Flovent 110 2 puffs daily), and following cessation of FP therapy (days 7-14) was conducted (n=4). The linear range of fluticasone-17β carboxylic acid measured by LC-MS/MS was 10-9510 pg/mL. The LOQ with a CV<20% was 10 pg/mL, and recovery ranged from 85.8-111.9% with a mean of 97.9%. Within-run precision testing indicated a maximum CV of 9.3% at 10.3 pg/mL. Between-run precision CVs for urine pools spiked with 3 concentrations of fluticasone-17 β carboxylic acid were 10.6% at 11.1 pg/mL, 11.2% at 500.9 pg/mL, and 8.7% at 5116 pg/mL. Detection of fluticasone-17β carboxylic acid in urine from patients prior to FP therapy was <10 pg/mL (days 1 & 2), ranged from 157-1830 pg/mL when receiving therapy (days 3-6) and was undetectable 5 days after stopping therapy (days 11-14). An eight-point calibration curve (0, 10, 25, 100, 200, 1000, 2000, and 10000 pg/mL) and three controls (10, 500 and 5000 pg/mL) were prepared in charcoal stripped-urine and included with each assay run. Aliquots of urine were centrifuged for 5 minutes at 1000g to remove particulate matter. A 1.0 mL fraction of each calibrator, control, and urine sample was transferred into an appropriately labeled 12×75 mm glass tube. Internal standard (100 μL of 40 ng/mL fluorometholone working solution per sample) was added to each calibrator, control, and urine sample followed by gentle vortexing and incubation for 5 minutes at ambient temperature. Acetonitrile with 0.1% HCl (1.5 mL/sample) was then added, and tubes were vortexed and centrifuged at 1500g for 10 minutes. […]

[2] = sensitivity and specificity of urine fluticasone 17β carboxylic acid after witnessed fluticasone propionate administration in asthma patients; type: in vivo, human; settings: Fluticasone Administered Under Observation, 16-24 hours before sample
Protocol: In order to evaluate the sensitivity and specificity of fluticasone 17β carboxylic acid, nineteen patients with asthma were recruited. Nine of these subjects were on treatment with fluticasone propionate. As a gold standard of compliance, treatment was documented by an RN study nurse who witnessed the patients' administration of fluticasone propionate 16-24 hours prior to submission of a urine sample for the analysis of fluticasone 17 β carboxylic acid. Urine samples from ten subjects with asthma but not receiving fluticasone propionate were used as controls.

[3] = fluticasone 17β carboxylic acid measured in urine with and without preservatives; type: physicochemical; settings: individual specimens, mean, bias
Protocol: Fluticasone 17β carboxylic acid was measured in urine samples lacking preservatives or urine samples containing one of the following preservatives: boric acid, glacial acetic acid, HCL, toluene, or sodium bicarbonate (Table 5).
In summary, non-preserved urine can be used effectively. Samples acquired with boric acid preservative indicated an individual bias of −0.6 to 5.0% and a mean bias of 1.4% from non-preserved urine specimen. Samples acquired in glacial acetic acid preservative indicated an individual bias of −18.9 to 17.1% and a mean bias of −1.2% from non-preserved urine specimen. Samples acquired in HCL preservative indicated an individual bias of −14.5 to 9.1% and a mean bias of −5.8% from non-preserved urine specimen. Samples acquired in sodium bicarbonate preservative indicated an individual bias of −94.7 to −92.5% and a mean bias of −93.8% from non-preserved urine specimen. Samples acquired in toluene preservative indicated an individual bias of −10.6 to 9.8% and a mean bias of 0.3% from non-preserved urine specimen. Thus, urine containing boric acid, glacial acetic acid, HCL, or toluene are acceptable. Urine containing sodium bicarbonate preservative is not as acceptable.

[4] = stability of fluticasone 17β carboxylic acid in pooled urine stored ambient, refrigerated or freeze/thaw; type: physicochemical; settings: for % Diff. 3: Ambient, Day 3; for % Diff 7: Day 7
Protocol: Fluticasone 17β carboxylic acid was measured in pooled urine samples lacking preservatives that were stored at ambient temperature, were refrigerated, or were frozen and subjected to freeze/thaw cycles (Table 6).
Fluticasone 17β carboxylic acid was measured in pooled urine samples containing boric acid as a preservative that were stored at ambient temperature, were refrigerated, or were frozen and subjected to freeze/thaw cycles (Table 7).
Fluticasone 17β carboxylic acid was measured in pooled urine samples containing glacial acetic acid as a preservative that were stored at ambient temperature, were refrigerated, or were frozen and subjected to freeze/thaw cycles (Table 8).
Fluticasone 17β carboxylic acid was measured in pooled urine samples containing hydrochloric acid as a preservative that were stored at ambient temperature, were refrigerated, or were frozen and subjected to freeze/thaw cycles (Table 9).
Fluticasone 17β carboxylic acid was measured in pooled urine samples containing toluene as a preservative that were stored at ambient temperature, were refrigerated, or were frozen and subjected to freeze/thaw cycles (Table 10).

CCC(=O)O[C@]1(C(=O)O)[C@H](C)C[C@H]2[C@@H]3C[C@H](F)C4=CC(=O)C=C[C@]4(C)[C@@]3(F)[C@@H](O)C[C@@]21C [Fluticasone 17β carboxylic acid]
fluticasone-17β carboxylic acid in urine ([1]; 5 days after stopping therapy (days 11-14)): undetectable | fluticasone-17β carboxylic acid in urine ([1]; patients prior to FP therapy (days 1 & 2)): < 10 pg/mL | fluticasone-17β carboxylic acid in urine ([1]; patients receiving therapy (days 3-6; Flovent 110 2 puffs daily)): 157 to 1830 pg/mL | Negative Urine (number of subjects) [2]: 0 | Positive Urine (number of subjects) [2]: 9 | % Difference between No Pres & HCL ([3]; urine with HCL): −14.5 to 9.1% and −5.8% and 9.1% and −12.1% and −14.5% | % Difference between No Pres & BA ([3]; urine with boric acid): −0.6 to 5.0% and 1.4% and 5.0% and −0.6% and −0.3% | % Difference between No Pres & GAA ([3]; urine with glacial acetic acid): −18.9 to 17.1% and −1.2% and 17.1% and −1.7% and −18.9% | % Difference between No Pres & Na2CO3 ([3]; urine with sodium bicarbonate): −94.7 to −92.5% and −93.8% and −94.2% and −94.7% and −92.5% | % Difference between No Pres & Toluene ([3]; urine with toluene): 0.3% and −10.6 to 9.8% and −10.6% and 9.8% and 1.6% | time stable ([4]; boric acid-preserved urine, ambient temperature): 7 days | freeze-thaw cycles stable ([4]; boric acid-preserved urine, frozen): up to 1 freeze-thaw cycle | time stable ([4]; boric acid-preserved urine, refrigerated): 3 days | time stable ([4]; glacial acetic acid-preserved urine, ambient temperature): 7 days | freeze-thaw cycles stable ([4]; glacial acetic acid-preserved urine, frozen): up to 2 freeze-thaw cycles | time stable ([4]; hydrochloric acid-preserved urine, ambient temperature): 7 days | freeze-thaw cycles stable ([4]; hydrochloric acid-preserved urine, frozen): up to 1 freeze-thaw cycle | time stable ([4]; hydrochloric acid-preserved urine, refrigerated): 3 days | time stable ([4]; non-preserved urine, ambient temperature): 3 days | freeze-thaw cycles stable ([4]; non-preserved urine, frozen): up to 3 freeze-thaw cycles | time stable ([4]; non-preserved urine, refrigerated): 7 days | freeze-thaw cycles stable ([4]; toluene-preserved urine, immediately frozen): up to 3 freeze-thaw cycles | % Diff. 3 ([4]; urine Boric Acid): 1.2% and −1.3% and −7.9% | % Diff. 3 ([4]; urine Boric Acid, mean): −2.7% | % Diff. 1 ([4]; urine Boric Acid, Freeze/Thaw, F/T 1): −9.3% and −5.4% and −10.1% | % Diff. 1 ([4]; urine Boric Acid, Freeze/Thaw, F/T 1, mean): −8.3% | % Diff 7 ([4]; urine Boric Acid, Refrigerated): −14.5% and −10.1% and −16.3% | % Diff 7 ([4]; urine Boric Acid, Refrigerated, mean): −13.7% | % Diff. 1 ([4]; urine HCL, Refrigerated, Day 1): −4.6% and −2.6% and −9.5% | % Diff. 1 ([4]; urine HCL, Refrigerated, Day 1, mean): −5.6% | % Diff 7 ([4]; urine HCL, Refrigerated): −17.1% and −8.5% | % Diff 7 ([4]; urine HCL, Refrigerated, mean): −11.4% | % Diff. 1 ([4]; urine Toluene, Refrigerated, Day 1): −19.5% and −12.4% and −11.4% | % Diff. 1 ([4]; urine Toluene, Refrigerated, Day 1, mean): −14.4% | % Diff. 1 ([4]; urine no pres, Freeze/Thaw, F/T 1): 0.0% and −6.6% and −6.1% | % Diff. 1 ([4]; urine no pres, Freeze/Thaw, F/T 1, mean): −4.2% | % Diff. 1 ([4]; urine no pres, Refrigerated, Day 1): −7.5% and −4.4% and −11.5% | % Diff. 1 ([4]; urine no pres, Refrigerated, Day 1, mean): −7.8%
